What was measured:
[1] = tested on: Diffuse gastric cancer cells (NUGC4 cells); experiment: In vivo test: survival of mice intraperitoneally transplanted with NUGC4 cells; design: species or system Balb/c nu/nu mice; settings: for mice alive 11 weeks after the gastric cancer cell transplantation / mice alive seven weeks after the gastric cancer cell transplantation: eight mice per therapy, treatment from day 21, AZ5104/osimertinib 10 mg/kg once a day oral, savolitinib 2.5 mg/kg once a day oral, antibody 40 mg/kg twice a week intraperitoneal; for t-test for numbers of mice alive 11 weeks after transplantation compared with the control group: p<0.05
Description: The anti-VEGF receptor 2 antibody used was anti-mouse VEGF receptor 2 antibody DC101 (GeneTex).
Diffuse gastric cancer cells (NUGC4 cells) were transplanted to Balb/c nu/nu mice (6 weeks old) by intraperitoneal administration of 2×10^6 of the cells in 200 μL of phosphate buffered saline (PBS) per mouse. On day 21 after the transplantation, ascites accumulation was confirmed, and treatment was started. The treatment was performed with the following eight kinds of therapies, and eight mice were used for each therapy.
For the control group (vehicle control), only a solution not dissolving any drug was administered once a week. The administration was continued for 4 weeks, and then for another 4 weeks.

EGFR (ErbB1) = EGFR (ErbB1) (Homo sapiens, UniProt P00533); settings: reported in literature; cited from earlier work
ErbB4 (HER4) = ErbB4 (HER4) (Homo sapiens, UniProt Q15303); settings: reported in literature; cited from earlier work
ErbB2 (HER2) = ErbB2 (HER2) (Homo sapiens, UniProt P04626); settings: reported in literature; cited from earlier work
[2] = tested on: ErbB2-overexpressing cells; settings: Hua Xie et al.; cited from earlier work
GCIY = experiment: In vitro cell growth inhibition (CCK-8), diffuse gastric cancer cell line GCIY; assay type: cell-based, human; settings: 72 hours; for HB-EGF-induced cell growth of GCIY / HGF-induced cell growth of GCIY / amphiregulin-induced cell growth of GCIY: inhibitor 0.001 to 10 μM; for HGF-induced cell growth of GCIY: HGF 50 ng/mL; for amphiregulin-induced cell growth of GCIY: amphiregulin 100 ng/mL; for baseline cell growth of GCIY: no growth factor added
Description: (§1) Five types of cell lines (NUGC4, GCIY, MKN7, GCR1 and MKN45) were subcultured in the RPMI 1640 culture medium containing 10% concentration of fetal bovine serum, 100 units/mL concentration of penicillin, and 100 units/mL concentration of antibiotic streptomycin, and used in the following experiments. The cells were periodically examined for the presence of mycoplasma infection by using MycoAlert Mycoplasma Detection Kit (Lonza). Cell growth was measured by using Cell Counting Kit-8 (CCK-8) (Dojin Kagaku Kenkyusho, Kumamoto, Japan) (Ishiyama M., et al., […], 44; 1299:1997). The cells were inoculated at a density of 5×10^4 cells/mL in a volume of 100 μL per well, and incubated at 37° C. for 24 hours in an incubator. Then, any one of three types of cell growth factors, amphiregulin (AP, 100 ng/mL, R&D Systems, Minneapolis, Minn.), heparin-binding EGF-like growth factor (HB-EGF), and hepatocyte growth factor (HGF, 50 ng/mL, R&D Systems), and any one of two types of the EGFR inhibitors, AZ5104 (0.001 to 10 μM) and AST1306 (0.001 to 10 μM)), were added to each well, and the cells were further incubated at 37° C. for 72 hours in an incubator. In addition, to the control wells, any one of the three types of cell growth factors was added, but not the EGFR inhibitor. Further, 10 μL of a WST-8 solution was added to each well, and the cells were cultured at 37° C. for 4 hours. Absorbance was measured at a wavelength of 450 nm by using a microplate reader (BIO-RAD Laboratories, Inc.). All the experiments were performed in triplicate, that is, the same experiment was repeated three times.

NUGC4 = experiment: In vitro cell growth inhibition (CCK-8), diffuse gastric cancer cell line NUGC4; assay type: cell-based, human; settings: inhibitor 0.001 to 10 μM, 72 hours; for HGF-induced cell growth of NUGC4: HGF 50 ng/mL; for amphiregulin-induced cell growth of NUGC4: amphiregulin 100 ng/mL
Description: as §1

[3] = tested on: normal human gastric fibroblasts; experiment: In vitro growth inhibition test for fibroblasts (cell count); assay type: cell-based; settings: HB-EGF 10 ng/mL, EGF receptor inhibitor 1 μM, 96 hours
[4] = tested on: EGFR-overexpressing tumor xenograft; settings: Hua Xie et al.; cited from earlier work
cancer patients = settings: among 55 evaluable cancer patients, phase I; cited from earlier work
MKN45 = experiment: In vitro cell growth inhibition (CCK-8), cMet gene-amplified gastric cancer cell line MKN45; assay type: cell-based, human; settings: 72 hours
Description: as §1, with “Further, 10 μL of a WST-8 solution was added to each well, and the cells were cultured at 37° C. for 4 hours.” left out, “All the experiments were performed in triplicate, that is, the same experiment was repeated three times.” left out

GCR-1 = experiment: In vitro cell growth inhibition (CCK-8), non-diffuse gastric cancer cell line GCR-1; assay type: cell-based, human; settings: HGF 50 ng/mL, 72 hours
Description: as §1, with “Further, 10 μL of a WST-8 solution was added to each well, and the cells were cultured at 37° C. for 4 hours.” left out, “All the experiments were performed in triplicate, that is, the same experiment was repeated three times.” left out

[5] = tested on: FVB-2/Nneu transgenic breast cancer; settings: Hua Xie et al.; cited from earlier work
MKN7 = experiment: In vitro cell growth inhibition (CCK-8), non-diffuse gastric cancer cell line MKN7; assay type: cell-based, human; settings: HGF 50 ng/mL, 72 hours
Description: as §1, with “Further, 10 μL of a WST-8 solution was added to each well, and the cells were cultured at 37° C. for 4 hours.” left out, “All the experiments were performed in triplicate, that is, the same experiment was repeated three times.” left out

[6] = tested on: ErbB2-overexpressing adenocarcinoma xenograft; settings: Hua Xie et al.; cited from earlier work
[7] = tested on: non-small cell lung cancer with EGFR EX20Ins mutation; settings: Floc'h et al.; cited from earlier work
mutant EGFR = settings: reported in literature; cited from earlier work

Sequence of EGFR (ErbB1) (P00533 25-1210): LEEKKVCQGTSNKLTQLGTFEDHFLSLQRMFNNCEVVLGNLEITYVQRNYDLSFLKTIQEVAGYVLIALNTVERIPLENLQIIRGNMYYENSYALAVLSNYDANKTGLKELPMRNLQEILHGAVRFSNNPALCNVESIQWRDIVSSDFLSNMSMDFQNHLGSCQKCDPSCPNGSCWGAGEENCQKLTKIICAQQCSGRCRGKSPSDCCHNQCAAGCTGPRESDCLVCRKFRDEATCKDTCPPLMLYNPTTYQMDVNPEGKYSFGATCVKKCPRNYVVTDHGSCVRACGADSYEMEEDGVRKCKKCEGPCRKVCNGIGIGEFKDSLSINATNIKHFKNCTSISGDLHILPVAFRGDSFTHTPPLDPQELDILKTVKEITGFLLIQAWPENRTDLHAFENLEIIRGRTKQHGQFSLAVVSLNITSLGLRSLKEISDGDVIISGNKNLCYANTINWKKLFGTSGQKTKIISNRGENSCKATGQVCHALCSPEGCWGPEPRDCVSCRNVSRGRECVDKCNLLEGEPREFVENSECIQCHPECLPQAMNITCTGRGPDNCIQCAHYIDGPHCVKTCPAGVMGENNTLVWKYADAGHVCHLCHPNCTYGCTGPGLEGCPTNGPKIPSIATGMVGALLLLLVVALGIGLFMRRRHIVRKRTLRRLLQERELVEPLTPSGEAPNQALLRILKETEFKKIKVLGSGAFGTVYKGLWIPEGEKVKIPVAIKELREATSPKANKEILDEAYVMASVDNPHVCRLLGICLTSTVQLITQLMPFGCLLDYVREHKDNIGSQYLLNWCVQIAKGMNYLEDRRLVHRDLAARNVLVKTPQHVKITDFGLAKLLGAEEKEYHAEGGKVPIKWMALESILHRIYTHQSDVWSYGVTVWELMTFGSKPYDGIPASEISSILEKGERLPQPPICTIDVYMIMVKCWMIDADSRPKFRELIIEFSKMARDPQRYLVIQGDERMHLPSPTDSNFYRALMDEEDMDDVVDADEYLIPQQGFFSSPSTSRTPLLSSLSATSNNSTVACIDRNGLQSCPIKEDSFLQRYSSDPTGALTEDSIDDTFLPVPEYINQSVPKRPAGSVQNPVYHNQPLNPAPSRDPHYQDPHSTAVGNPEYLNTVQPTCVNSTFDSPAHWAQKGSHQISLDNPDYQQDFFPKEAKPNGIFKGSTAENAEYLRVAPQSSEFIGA
Sequence of ErbB2 (HER2) (P04626 23-1255): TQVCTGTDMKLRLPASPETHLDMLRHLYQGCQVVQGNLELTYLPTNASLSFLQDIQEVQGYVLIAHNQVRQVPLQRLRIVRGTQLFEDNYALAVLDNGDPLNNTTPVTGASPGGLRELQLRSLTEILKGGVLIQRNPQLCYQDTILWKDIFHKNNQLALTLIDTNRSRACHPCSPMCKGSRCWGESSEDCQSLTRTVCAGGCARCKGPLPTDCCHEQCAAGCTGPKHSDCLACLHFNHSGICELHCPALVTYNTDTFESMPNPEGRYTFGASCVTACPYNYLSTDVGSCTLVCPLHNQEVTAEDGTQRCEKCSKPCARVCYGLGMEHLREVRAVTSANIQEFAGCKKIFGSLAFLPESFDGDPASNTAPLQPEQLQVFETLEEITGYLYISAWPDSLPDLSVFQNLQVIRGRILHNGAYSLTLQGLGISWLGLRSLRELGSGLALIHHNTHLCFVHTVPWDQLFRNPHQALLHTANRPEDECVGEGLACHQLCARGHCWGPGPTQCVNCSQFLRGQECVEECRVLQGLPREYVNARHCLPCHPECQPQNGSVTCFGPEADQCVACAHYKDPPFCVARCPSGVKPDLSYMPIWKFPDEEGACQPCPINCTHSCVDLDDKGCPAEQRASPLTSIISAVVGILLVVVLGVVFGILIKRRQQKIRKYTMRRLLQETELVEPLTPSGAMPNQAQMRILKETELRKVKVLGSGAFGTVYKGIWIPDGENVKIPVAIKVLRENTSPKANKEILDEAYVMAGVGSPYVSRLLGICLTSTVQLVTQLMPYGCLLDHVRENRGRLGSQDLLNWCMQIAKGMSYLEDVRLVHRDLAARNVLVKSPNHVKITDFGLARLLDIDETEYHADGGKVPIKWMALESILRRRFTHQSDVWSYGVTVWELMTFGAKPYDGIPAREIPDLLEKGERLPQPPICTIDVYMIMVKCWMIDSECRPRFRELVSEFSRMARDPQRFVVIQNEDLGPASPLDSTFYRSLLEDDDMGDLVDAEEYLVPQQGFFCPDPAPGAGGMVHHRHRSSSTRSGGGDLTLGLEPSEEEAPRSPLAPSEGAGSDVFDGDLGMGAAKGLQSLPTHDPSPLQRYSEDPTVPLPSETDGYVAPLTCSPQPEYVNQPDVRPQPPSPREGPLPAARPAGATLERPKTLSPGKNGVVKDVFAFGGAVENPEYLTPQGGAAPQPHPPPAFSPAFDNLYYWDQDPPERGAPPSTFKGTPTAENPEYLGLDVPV
Sequence of ErbB4 (HER4) (Q15303 26-1308): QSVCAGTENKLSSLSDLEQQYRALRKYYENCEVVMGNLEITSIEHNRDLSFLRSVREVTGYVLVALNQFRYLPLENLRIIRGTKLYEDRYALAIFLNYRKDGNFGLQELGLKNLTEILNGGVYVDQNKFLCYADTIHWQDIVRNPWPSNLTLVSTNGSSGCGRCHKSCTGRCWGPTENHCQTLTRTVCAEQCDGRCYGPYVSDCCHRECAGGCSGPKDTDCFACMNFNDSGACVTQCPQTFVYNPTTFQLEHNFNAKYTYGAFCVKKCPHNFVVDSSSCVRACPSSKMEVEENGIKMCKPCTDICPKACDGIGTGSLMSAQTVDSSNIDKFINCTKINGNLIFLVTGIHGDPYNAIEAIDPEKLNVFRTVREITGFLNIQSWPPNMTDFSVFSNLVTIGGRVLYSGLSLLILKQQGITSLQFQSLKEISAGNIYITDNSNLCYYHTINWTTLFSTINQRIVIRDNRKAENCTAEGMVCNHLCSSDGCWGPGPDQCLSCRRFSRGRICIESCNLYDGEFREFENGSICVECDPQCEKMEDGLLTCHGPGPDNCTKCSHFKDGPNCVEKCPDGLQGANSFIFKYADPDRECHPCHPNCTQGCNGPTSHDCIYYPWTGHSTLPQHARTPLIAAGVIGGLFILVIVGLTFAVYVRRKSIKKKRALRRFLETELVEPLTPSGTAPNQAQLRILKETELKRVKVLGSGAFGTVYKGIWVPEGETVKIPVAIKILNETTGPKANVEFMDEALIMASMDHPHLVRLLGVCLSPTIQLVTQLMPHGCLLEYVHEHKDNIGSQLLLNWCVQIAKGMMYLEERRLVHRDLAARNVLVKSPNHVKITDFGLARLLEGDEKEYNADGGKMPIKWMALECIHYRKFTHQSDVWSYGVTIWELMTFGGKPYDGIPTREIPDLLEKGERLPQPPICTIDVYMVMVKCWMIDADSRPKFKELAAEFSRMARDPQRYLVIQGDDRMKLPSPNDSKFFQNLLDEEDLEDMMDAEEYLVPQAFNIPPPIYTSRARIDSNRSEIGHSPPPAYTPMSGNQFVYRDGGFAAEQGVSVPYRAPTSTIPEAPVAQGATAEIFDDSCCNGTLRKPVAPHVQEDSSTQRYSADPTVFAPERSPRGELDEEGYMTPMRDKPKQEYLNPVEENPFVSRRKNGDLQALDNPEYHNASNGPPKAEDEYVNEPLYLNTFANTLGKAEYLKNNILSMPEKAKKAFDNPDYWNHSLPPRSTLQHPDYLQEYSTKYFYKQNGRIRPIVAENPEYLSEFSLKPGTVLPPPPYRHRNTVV

SMILES: C[C@@H](c1ccc2nccn2c1)n1nnc2ncc(-c3cnn(C)c3)nc21 [savolitinib]
- mice alive 11 weeks after the gastric cancer cell transplantation [1]: all died
- mice alive seven weeks after the gastric cancer cell transplantation [1]: 2 mice
- t-test for numbers of mice alive 11 weeks after transplantation compared with the control group [1]: no significant difference

SMILES: Cc1c(NC(=O)OC[C@@H]2COCCN2)cn2ncnc(Nc3ccc4c(cnn4Cc4cccc(F)c4)c3)c12 [AC480, (S)-morpholin-3-ylmethyl 4-(1-(3-fluorobenzyl)-1H-indazol-5-ylamino)-5-methylpyrrolo[1,2-f][1,2,4]triazine-6-carbamate]
- inhibition of EGFR (ErbB1) (EGFR (ErbB1)): inhibit
- inhibition of ErbB4 (HER4) (ErbB4 (HER4)): inhibit
- inhibition of ErbB2 (HER2) (ErbB2 (HER2)): inhibit

SMILES: C=CC(=O)Nc1ccc2ncnc(Nc3ccc(OCc4cccc(F)c4)c(Cl)c3)c2c1.Cc1ccc(S(=O)(=O)O)cc1 [AST1306, 2-propenamide, N-[4-[[3-chloro-4-[(3-fluorophenyl)methoxy]phenyl]amino]-6-quinazolinyl]-, 4-methylbenzenesulfonate (1:1)]
- growth inhibitory effect in ErbB2-overexpressing cells [2]: more potent
- inhibition of EGFR (ErbB1) (EGFR (ErbB1)): irreversible inhibitor
- HB-EGF-induced cell growth of GCIY (GCIY): inhibited
- HGF-induced cell growth of GCIY (GCIY): inhibited
- amphiregulin-induced cell growth of GCIY (GCIY): inhibited
- baseline cell growth of GCIY (GCIY): inhibited
- HB-EGF-induced cell growth of NUGC4 (NUGC4): inhibited
- HGF-induced cell growth of NUGC4 (NUGC4): inhibited
- amphiregulin-induced cell growth of NUGC4 (NUGC4): inhibited
- inhibition of ErbB4 (HER4) (ErbB4 (HER4)): irreversible inhibitor
- inhibition of ErbB2 (HER2) (ErbB2 (HER2)): irreversible inhibitor
- HB-EGF-induced cell growth of normal human gastric fibroblasts [3]: inhibited
- tumor growth in EGFR-overexpressing tumor xenografted mice [4]: weakly inhibited
- partial remission (cancer patients): 7 patients
- stability (stability over 6 months or longer) (cancer patients): 7 patients
- concentration at which cell growth of MKN45 was inhibited (MKN45): ≥ 1 µM
- concentration at which HGF-induced cell growth of GCR-1 was inhibited (GCR-1): ≥ 0.3 µM
- tumor growth in FVB-2/Nneu transgenic breast cancer mice [5]: potently inhibited
- concentration at which HGF-induced cell growth of MKN7 was inhibited (MKN7): ≥ 0.3 µM
- tumor growth in ErbB2-overexpressing adenocarcinoma xenografted mice [6]: potently inhibited

SMILES: COc1cc2ncnc(Nc3ccc(F)c(Cl)c3)c2cc1NC(=O)/C=C/CN1CCCCC1 [dacomitinib]
- inhibition of EGFR (ErbB1) (EGFR (ErbB1)): inhibit
- inhibition of ErbB4 (HER4) (ErbB4 (HER4)): inhibit
- inhibition of ErbB2 (HER2) (ErbB2 (HER2)): inhibit

SMILES: CS(=O)(=O)CCNCc1ccc(-c2ccc3ncnc(Nc4ccc(OCc5cccc(F)c5)c(Cl)c4)c3c2)o1 [lapatinib]
- inhibition of ErbB4 (HER4) (ErbB4 (HER4)): inhibit
- inhibition of ErbB2 (HER2) (ErbB2 (HER2)): inhibit

SMILES: CC(C)(O)CC(=O)NCCn1ccc2ncnc(Nc3ccc(Oc4cccc(C(F)(F)F)c4)c(Cl)c3)c21 [TAK-285, N-(2-(4-(3-chloro-4-(3-(trifluoromethyl)phenoxy)phenylamino)-5H-pyrrolo[3,2-d]pyrimidin-5-yl)ethyl)-3-hydroxy-3-methylbutanamide]
- inhibition of ErbB4 (HER4) (ErbB4 (HER4)): inhibit
- inhibition of ErbB2 (HER2) (ErbB2 (HER2)): inhibit

SMILES: C=CC(=O)Nc1cc(Nc2nccc(-c3c[nH]c4ccccc34)n2)c(OC)cc1N(C)CCN(C)C [AZ5104, N-(5-(4-(1H-indol-3-yl)pyrimidin-2-ylamino)-2-((2-(dimethylamino)ethyl)(methyl)amino)-4-methoxyphenyl)acrylamide]
- inhibition of EGFR (ErbB1) (EGFR (ErbB1)): inhibitory activities
- HB-EGF-induced cell growth of GCIY (GCIY): inhibited
- HGF-induced cell growth of GCIY (GCIY): inhibited
- amphiregulin-induced cell growth of GCIY (GCIY): inhibited
- baseline cell growth of GCIY (GCIY): inhibited
- tumor growth in mice transplanted with non-small cell lung cancer with EGFR EX20Ins mutation [7]: inhibit
- HB-EGF-induced cell growth of NUGC4 (NUGC4): inhibited
- HGF-induced cell growth of NUGC4 (NUGC4): inhibited
- amphiregulin-induced cell growth of NUGC4 (NUGC4): inhibited
- inhibition of ErbB4 (HER4) (ErbB4 (HER4)): inhibitory activities
- inhibition of ErbB2 (HER2) (ErbB2 (HER2)): inhibitory activities
- HB-EGF-induced cell growth of normal human gastric fibroblasts [3]: inhibited
- inhibitory activity against mutant EGFR (mutant EGFR): inhibitory activity
- mice alive 11 weeks after the gastric cancer cell transplantation [1]: all died
- mice alive seven weeks after the gastric cancer cell transplantation [1]: one
- t-test for numbers of mice alive 11 weeks after transplantation compared with the control group [1]: significant differences
- concentration at which cell growth of MKN45 was inhibited (MKN45): ≥ 1 µM
- concentration at which HGF-induced cell growth of GCR-1 was inhibited (GCR-1): ≥ 0.3 µM
- concentration at which HGF-induced cell growth of MKN7 was inhibited (MKN7): ≥ 0.3 µM

SMILES: C=CC(=O)Nc1cc(Nc2nccc(-c3cn(C)c4ccccc34)n2)c(OC)cc1N(C)CCN(C)C [osimertinib, 2-propenamide, N-[2-[[2-(dimethylamino)ethyl]methylamino]-4-methoxy-5-[[4-(1-methyl-1H-indol-3-yl)-2-pyrimidinyl]amino]phenyl]-]
- tumor growth in mice transplanted with non-small cell lung cancer with EGFR EX20Ins mutation [7]: inhibit
- inhibition of ErbB4 (HER4) (ErbB4 (HER4)): inhibitory activities
- inhibition of ErbB2 (HER2) (ErbB2 (HER2)): inhibitory activities
- inhibitory activity against mutant EGFR (mutant EGFR): inhibitory activity
- mice alive 11 weeks after the gastric cancer cell transplantation [1]: 2 mice
- t-test for numbers of mice alive 11 weeks after transplantation compared with the control group [1]: significant differences

SMILES: CCN1CCN(Cc2ccc(-c3cc4c(N[C@H](C)c5ccccc5)ncnc4[nH]3)cc2)CC1 [AEE788, (R)-6-(4-((4-ethylpiperazin-1-yl)methyl)phenyl)-N-(1-phenylethyl)-7H-pyrrolo[2,3-d]pyrimidin-4-amine]
- inhibition of EGFR (ErbB1) (EGFR (ErbB1)): inhibit
- inhibition of ErbB4 (HER4) (ErbB4 (HER4)): inhibit
- inhibition of ErbB2 (HER2) (ErbB2 (HER2)): inhibit

SMILES: C=CC(=O)N1CCC(Oc2cc3c(Nc4ccc(Cl)c(Cl)c4F)ncnc3cc2OC)CC1 [poziotinib, 1-(4-(4-(3,4-dichloro-2-fluorophenylamino)-7-methoxyquinazolin-6-yloxy)piperidin-1-yl)prop-2-en-1-one]
- inhibition of EGFR (ErbB1) (EGFR (ErbB1)): inhibit
- inhibition of ErbB4 (HER4) (ErbB4 (HER4)): inhibit
- inhibition of ErbB2 (HER2) (ErbB2 (HER2)): inhibit

From patent US20220008419A1, “PHARMACEUTICAL COMPOSITION FOR TREATING DIFFUSE-TYPE GASTRIC CANCER” (KANAZAWA MEDICAL UNIVERSITY, priority 2018, published 2022)
